Tested on: IFN-γ
Test: Serum IFN-γ concentration by sandwich ELISA after i.v. injection of glycolipid into mice
Assay type: in vivo
Settings: BALB/c mice, 1 μg i.v., ELISA at 2, 6, 12 and 24 hours post-injection
Procedure: α-Galactosylceramide (α-GalCer, KRN or KRN7000) was synthesized by Kirin Brewery (Gumma, Japan). The stock solution was dissolved in a 0.5% polysorbate −20 (Nikko Chemical, Tokyo), 0.9% NaCl solution at a concentration of 200 μg/ml, and diluted in PBS just before injection into mice. α-C-galactosylceramide (α-C-GalCer, CRONY or CRONY-101) was synthesized as described in commonly owned U.S. patent application Ser. No. 10/462,211. Compounds […], GCK75(a) and GCK75(b) were synthesized as described herein. The stock solution was originally dissolved in 100% DMSO at a concentration of 1 mg/ml. Before injection into mice, it was diluted to a concentration of 200 μg/ml in a 0.5% polysorbate-20 (Nikko Chemical, Tokyo), 0.9% NaCl solution, and diluted in PBS just before injection into mice. […]
The serum concentrations of IFN-γ were measured at 2, 6, 12, and 24 hours after treatment with α-GalCer, α-C-GalCer, compound […], GCK75(a), GCK75(b), or nothing using a sandwich ELISA (e-bioscience, San Diego).
To compare the timing of immunological responses to α-GalCer (KRN), α-C-GalCer (CRONY), GCM11i, GCK75(a), and GCK75(b), mice were injected intravenously (i.v.) with 1 μg of each of the glycolipids or with nothing. At 2, 6, 12, and 24 hours post-injection, IFN-γ concentrations in the sera were measured by ELISA.

Substance: α-C-galactosylceramide [α-C-GalCer]
- time of peak IFN-γ response in the sera post-injection: 24 h

— US20050222048A1, “Novel synthetic C-glycolipids, their synthesis and use to treat infections, cancer and autoimmune diseases” (The Research Foundation of The City University of New York, priority 2004, published 2005)
